In patent EP0641792A1, “1,2-Dithiole derivatives and therapeutic agents containing them” (MITSUI TOATSU CHEMICALS, Inc., priority 1993, dated 1995):

How the values were obtained:
Male SD rats [1] = experiment: Inhibitory action for disappearance of enzyme in myocardial cells after ischemia and reperfusion (Evaluation Example 6); assay type: in vivo, rat; conditions: for Mortality (%) / CPK activity (U/mg protein) (Non-ischemia territory)-(ischemia and reperfusion territory): 1.0 mg/kg intravenously, ligation 20 minutes, reperfusion 2 hours; for CPK activity (U/mg protein) (Non-ischemia territory)-(ischemia and reperfusion territory): left ventricle, average value ± standard error
Method: Male SD rats of 7-12 week age were anesthetized with pentobarbital and subjected to thoracotomy under artificial respiration. The left anterior descending coronary artery of each rat was ligated for 20 minutes and then subjected to reperfusion for 2 hours. Then, the heart of each rat was enucleated and the left ventricle was separated. The left ventricle was homogenized to measure the activity of creatine phosphokinase (CPK) remaining in the ventricle. Each test compound was intravenously administered 5 minutes before the obstruction of coronary artery. For comparison, the same evaluation was conducted also on the 4-(4-methoxy-3-sulfophenyl)-5-phenyl-3H-1,2-dithiole-3-thione sodium salt described in Bull. […] Chim. […] In Table 18 are shown the differences in CPK activity between non-ischemia territory and ischemia and reperfusion territory of left ventricle, of test compounds and control.
In Table 18, CPK activity indicates (average value ± standard error), and n indicates the number of tested rats.

peroxylipid [2] = experiment: Inhibitory action for formation of peroxylipid (Evaluation Example 1; MDA, thiobarbituric acid method); assay type: biochemical; conditions: rat brain homogenate, 37°C for 60 minutes; test compound 10⁻⁴ M; n=2
Method: (§1) Male SD rats of 7-10 week age were anesthetized with pentobarbital and then subjected to dehematization. Thereafter, their brains were enucleated. The brain tissues were homogenized with a phosphate buffer solution with ice-cooling. Each of the 5% homogenates was incubated at 37°C for 60 minutes to form malondialdehyde (MDA). The amount of MDA was determined by measuring the absorbance at 535 nm according to the thiobarbituric acid method. Using this MDA amount (a) and a control value (b) (a MDA amount when no test compound was added), the inhibition (%) for formation of peroxylipid, of test compound was calculated from the following formula. Inhibition (%) for formation of peroxylipid = [(b-a)/b]x100 [formula] Each test compound was added to the homogenate before the incubation.
(§2) Incidentally, the concentration of each test compound was 10⁻⁴ M, and the number of rats used for each test compound was n=2.

[3] = Solubility in water (Test Example 1); assay type: physicochemical; conditions: 5% aqueous glucose solution, saline or isotonic
Method: (§3) Solubility in 5% aqueous glucose solution was measured.

Male SD rats [4] = experiment: Inhibitory action for disappearance of enzyme in myocardial cells after ischemia and reperfusion (Evaluation Example 3); assay type: in vivo, rat; conditions: 1.0 mg/kg intravenously; ligation 20 minutes, reperfusion 2 hours; left ventricle; average value ± standard error
Method: Male SD rats of 7-12 week age were anesthetized with pentobarbital and subjected to thoracotomy under artificial respiration. The left anterior descending coronary artery of each rat was ligated for 20 minutes and then subjected to reperfusion for 2 hours. Then, the heart of each rat was enucleated and the left ventricle was separated. The left ventricle was homogenized to measure the activity of creatine phosphokinase (CPK) remaining in the ventricle. A test compound was intravenously administered 5 minutes before the obstruction of coronary artery. In Table 15 are shown the differences in CPK activity between non-ischemia territory and ischemia and reperfusion territory of left ventricle, of test compound and control.
In Table 15, CPK activity indicates (average value ± standard error), and n indicates the number of tested rats.

Male SD rats [5] = experiment: Inhibitory action for reperfusion arrhythmia (Evaluation Example 2; coronary artery ligation 5 minutes, reperfusion 10 minutes); assay type: in vivo, rat; conditions: 1.0 mg/kg intravenously 5 minutes before obstruction of coronary artery
Method: (§4) Male SD rats of 8-12 week age were anesthetized with pentobarbital and subjected to thoracotomy under artificial respiration. The left anterior descending coronary artery of each rat was ligated for 5 minutes and then subjected to reperfusion for 10 minutes. An electrocardiograph in standard bipolar limb lead II was recorded for each rat to examine the occurrence of ventricular arrhythmia. A test compound was intravenously administered 5 minutes before the obstruction of coronary artery. For comparison, the same evaluation was conducted also on the 5-(4-methoxy-3-sulfophenyl)-3H-1,2-dithiole-3-thione sodium salt described in Eur. J. Med. Chem. 15, 405 (1980). [drawing 93]

peroxylipid [6] = experiment: Inhibitory action for formation of peroxylipid (Evaluation Example 4; MDA, thiobarbituric acid method); assay type: biochemical; conditions: rat brain homogenate, 37°C for 60 minutes; test compound 10⁻⁴ M; n=2
Method: as §1, §2

[7] = Solubility in water (Test Example 2); assay type: physicochemical; conditions: 5% aqueous glucose solution, saline or isotonic
Method: as §3

Male SD rats [8] = experiment: Inhibitory action of reperfusion arrhythmia (Evaluation Example 5; coronary artery ligation 5 minutes, reperfusion 10 minutes); assay type: in vivo, rat; conditions: 1.0 mg/kg intravenously 5 minutes before obstruction of coronary artery
Method: as §4, with “arrhythmia. Each” for “arrhythmia. A”, “[drawing 95]” for “[drawing 93]”

Row | SMILES | Inhibition (%) (peroxylipid [2]) | solubility [3] [µg/mL] | Inhibition (%) (peroxylipid [6]) | Mortality (%) (Male SD rats [1]) | CPK activity (U/mg protein) (Non-ischemia territory)-(ischemia and reperfusion territory) (Male SD rats [1]) | Mortality (%) (Male SD rats [8]) | VF incidence (VF rats)/(tested rats) (%) (Male SD rats [8]) | further results
1 | COc1ccc(-c2c(-c3ccccc3)ssc2=S)cc1S(=O)(=O)[O-].[Na+] [Compound in literature, 4-(4-methoxy-3-sulfophenyl)-5-phenyl-3H-1,2-dithiole-3-thione sodium salt, reference compound] | – | – | – | – | – | – | – | effect on disappearance of creatine phosphokinase from myocardial cells and on rat mortality (Male SD rats [1]; result in words, versus control): no significant effect
2 | COc1cc2c(cc1S(=O)(=O)[O-])CCc1c-2ssc1=S.[Na+] [Production Example 3, 4,5-dihydro-8-methoxy-7-sulfo-3H-naphtho-[1,2-c]-1,2-dithiole-3-thione sodium salt] | 100 | ≥ 10000 | – | – | – | – | – | –
3 | COc1cc2c(cc1S(=O)(=O)[O-])-c1ssc(=S)c1CC2.[Na+] [Production Example 4, 4,5-dihydro-7-methoxy-8-sulfo-3H-naphtho[1,2-c]-1,2-dithiole-3-thione sodium salt] | 100 | ≥ 10000 | – | – | – | – | – | CPK activity (U/mg protein) (Non-ischemia territory)-(ischemia and reperfusion territory) (Male SD rats [4]): 1.36 ± 0.34 (n=7) U/mg protein; Mortality (%) (Male SD rats [5]): 2/5 (40.0) %; VF incidence (VF rats)/(tested rats) (%) (Male SD rats [5]): 2/5 (40.0) %
4 | CCOc1cc2c(cc1S(=O)(=O)[O-])-c1ssc(=S)c1CC2.[Na+] [Production Example 5, 4,5-dihydro-7-ethoxy-8-sulfo-3H-naphtho-[1,2-c]-1,2-dithiol-3-thione sodium salt] | 100 | ≥ 10000 | – | – | – | – | – | –
5 | COc1cc2c(cc1S(=O)(=O)[O-])OCc1c-2ssc1=S.[Na+] [Production Example 12, 8-methoxy-7-sulfo-3H,4H-benzopyrano-[4,3-c]-1,2-dithiole-3-thione sodium salt] | 100 | ≥ 10000 | – | – | – | – | – | –
6 | O=S(=O)([O-])c1ccc2c(c1)-c1ssc(=S)c1CO2.[Na+] [Production Example 13, 8-sulfo-3H,4H-benzopyrano[4,3-c]-1,2-dithiole-3-thione sodium salt] | 100 | ≥ 10000 | – | – | – | – | – | –
7 | CCCCCCc1ssc(=S)c1Cc1ccc(OC)c(S(=O)(=O)[O-])c1.[Na+] [Production Example 26, 5-hexyl-4-(4-methoxy-3-sulfobenzyl)-3H-1,2-dithiole-3-thione sodium salt] | – | – | 100 | 33.3 | 0.70 ± 0.23 (n=9) U/mg protein | 2/6 (33.3) % | 3/6 (50.0) % | solubility [7]: ≥ 10000 µg/mL
8 | COc1ccc(-c2c(-c3ccc(C)cc3)ssc2=S)cc1S(=O)(=O)[O-].[Na+] [Production Example 34, 4-(4-methoxy-3-sulfophenyl)-5-(p-tolyl)-3H-1,2-dithiole-3-thione sodium salt] | – | – | 100 | 40.0 | 0.81 ± 0.43 (n=10) U/mg protein | 2/7 (28.6) % | 3/7 (42.9) % | solubility [7]: ≥ 10000 µg/mL
9 | O=S(=O)([O-])c1ccc(Cc2c(-c3ccccc3)ssc2=S)cc1.[Na+] [Production Example 39, 5-phenyl-4-(4-sulfobenzyl)-3H-1,2-dithiole-3-thione sodium salt] | – | – | 100 | 12.5 | 0.84 ± 0.18 (n=8) U/mg protein | 0/4 (0.0) % | 1/4 (25.0) % | –
